# Test results reported in patent US11432549B2, “Carbamoyl triazolinone based herbicide combinations and method of use” (Arysta LifeScience Corporation, priority 2009, dated 2022).
# How the values were obtained:
# Format in all cases: in vivo
# [1] = system: Mustard (Sinapsis sp.); test: Ex 5/7 greenhouse spray, bleaching/injury ratings
# Protocol: (§1) Containers were watered as needed based on species and water usage. The greenhouse was heated to keep temperatures above 50° F. (10° C.) and ventilated as needed to keep temperatures below 100° F. (38° C.). Typical daytime temperatures in the greenhouse were 80-90° F. (27-32° C.) and nighttime temperatures were between 50-60° F. (10-16° C.). The soil employed was Promix BX potting soil. Overall moisture conditions were normal and the closest weather station was on-site. Conditions and equipment employed in this Example are tabulated below in Tables 5-1 and 5-2.
# (§2) All containers were moved outdoors from the greenhouse and arranged in blocks by treatment for the herbicide applications. A single spray application was applied to each block containing four repetitions of each species for each treatment. Plants were then immediately returned to the greenhouse and irrigated with approximately ¼″ water 1-3 hrs after treatment with a hose end sprayer. Only the Poa plants were trimmed with scissors two days prior to treatment at a height of approximately 3 inches.
# (§3) Referring to FIGS. 2A-B, 3A-C, 4A-C, and 5A-D, all ratings of injury or bleaching are based on a scale from 1 to 9. […] Any bleaching measurement 4 and above was considered unacceptable for desirable turf species. In injury measurements, 1 indicates no injury while 9 indicates a dead plant. Any injury measurement 4 and above was considered unacceptable for desirable turf species). Density correlates with percent cover where 1 indicates no grass while 9 indicates a full pot.
# (§4) Replications employed include 4, Untreated treatments: 1, Design: Randomized Complete Block, Treatment units: US standard, Treated plot size Width: 4 feet, Treated plot size Length: 4 feet, Application volume: 50 gal/ac, Mix size: 0.5562 liters, Mix overage: 100%, Format definitions: G-All7.DEF, G-All7.FRM.
# (§5) In evaluating synergism, the data from Example 5 above were converted to % of control. This was done based on the data provided on a 1-9 scale detailed in Example 5. Expected values were computed from the % of control data by the formula for expected control=[…], where A is the % of control value for herbicide A alone and B is the % of control value for herbicide B alone.
# [2] = system: Green Foxtail; test: Ex 5/7 greenhouse spray, bleaching/injury ratings
# Protocol: as §1, §2, §3, §4, §5
# [3] = system: Cyperus esculentus; test: Ex 2 pre-emergence, visual % damage; details: kg/ha: Amicarbazone 1.5, Clomazone/Hexazinone 2.0, mixture 1.5 + 2.0
# Description: DINAMIC® (amicarbazone) and Discover (clomazone 400 g/kg+hexazinone 100 g/kg) alone or in combination were applied pre-emergence in this study. The formulations for DINAMIC® and Discover were 700 g active ingredient a.i./kg and 500 g active ingredient a.i/kg respectively.
# The herbicidal effect was observed by comparing the extent of Cyperus esculentus treated with the compounds against that occurring in similar non-treated control. Herbicidal effect was visually assessed and recorded at 27, 43, 46, 60, 63, 77, 83, 97 and 124 days after treatment (DAT). Damage by the herbicidal compositions was evaluated with reference to a scale of 0% to 100% in comparison with untreated control. 0% means no damage and 100% means complete destruction of the plants.
# The theoretical herbicidal effect index were calculated based on Colby and the values were indicated in bracket ( ) in Table 2-1. The herbicidal mixtures (amicarbazone+(clomazone/hexazinone)) exert a greater herbicidal action than expected according to Colby on the basis of the observed effects of the individual components when used alone. […] The underlined values in the table indicate that the observed weed killing is greater than calculated from the Colby formula and therefore indicates a synergistic weed killing effect or activity.
# [4] = system: Poa annua; test: Ex 5/7 greenhouse spray, bleaching/injury ratings
# Protocol: as §1, §2
# Transplanted tillering Kentucky Bluegrass was 5 to 6 months old, transplanted Poa annua was 5 to 6 months old. Tall fescue was seeded into the crabgrass pots. St. Augustine plants (Floratam and Saphire) were shipped from Port St. Lucie, Fla. Only two replicates of Saphire St. Augustine grass were used due to plant availability.
# as §3, §4, §5
# [5] = 6 DA-A, Trt 2/4/6: Amicarbazone 0.0219, Tenacity 0.125 lb ai/a
# [6] = 6 DA-A, Trt 3/5/9: Amicarbazone 0.131, Tenacity 0.25 lb ai/a
# [7] = 7 DA-A, Trt 2/4/6: Amicarbazone 0.0219, Tenacity 0.125 lb ai/a
# [8] = 7 DA-A, Trt 3/5/9: Amicarbazone 0.131, Tenacity 0.25 lb ai/a
# [9] = rating 1, 0.022 lbs ai/A (0.5 oz/A)
# [10] = rating 1, 0.13 lbs ai/A (3 oz/A)
# [11] = rating 2, 0.022 lbs ai/A (0.5 oz/A)
# [12] = rating 2, 0.13 lbs ai/A (3 oz/A)
# [13] = rating 3, 0.022 lbs ai/A (0.5 oz/A)
# [14] = rating 3, 0.13 lbs ai/A (3 oz/A)
# [15] = rating 4, 0.022 lbs ai/A (0.5 oz/A)
# [16] = rating 4, 0.13 lbs ai/A (3 oz/A)
# [17] = rating 5, 0.022 lbs ai/A (0.5 oz/A)
# [18] = rating 5, 0.13 lbs ai/A (3 oz/A)
# [19] = rating 6, 0.022 lbs ai/A (0.5 oz/A)
# [20] = rating 6, 0.13 lbs ai/A (3 oz/A)
# [21] = rating 7, 0.022 lbs ai/A (0.5 oz/A)
# [22] = rating 7, 0.13 lbs ai/A (3 oz/A)
structure (smiles),measurement,setting,value
"CC(C)c1nn(C(=O)NC(C)(C)C)c(=O)n1N [Amicarbazone, 4-amino-5-isopropyl-2-(tert-butyl-aminocarbonyl)-2,4-dihydro-3H-1,2,4-triazol-3-one]",Injury (1-9 scale),"[1]; 3 DA-A, Trt 2/4/6: Amicarbazone 0.0219, Tenacity 0.125 lb ai/a",2.8 b
same,Injury (1-9 scale),"[1]; 3 DA-A, Trt 3/5/9: Amicarbazone 0.131, Tenacity 0.25 lb ai/a",6.8 a
same,Bleaching (1-9 scale),[1]; [5],2.0 bc
same,Injury (1-9 scale),[1]; [5],2.8 c
same,Bleaching (1-9 scale),[1]; [6],1.3 c
same,Injury (1-9 scale),[1]; [6],6.5 ab
same,Bleaching (1-9 scale),[1]; [7],2.0 bc
same,Injury (1-9 scale),[1]; [7],4.3 c
same,Bleaching (1-9 scale),[1]; [8],2.0 bc
same,Injury (1-9 scale),[1]; [8],7.0 b
same,Injury (1-9 scale),"[1]; 10 DA-A, Trt 2/4/6: Amicarbazone 0.0219, Tenacity 0.125 lb ai/a",6.0 b
same,Injury (1-9 scale),"[1]; 10 DA-A, Trt 3/5/9: Amicarbazone 0.131, Tenacity 0.25 lb ai/a",8.8 a
same,Injury (1-9 scale),"[1]; 14 DA-A, Trt 2/4/6: Amicarbazone 0.0219, Tenacity 0.125 lb ai/a",5.8 b
same,Injury (1-9 scale),"[1]; 14 DA-A, Trt 3/5/9: Amicarbazone 0.131, Tenacity 0.25 lb ai/a",8.8 a
same,Mustard bleaching,[1]; [9],119 % of control
same,Mustard injury,[1]; [9],78 % of control
same,Mustard bleaching,[1]; [10],132 % of control
same,Mustard injury,[1]; [10],28 % of control
same,Mustard bleaching,[1]; [11],94 % of control
same,Mustard injury,[1]; [11],78 % of control
same,Mustard bleaching,[1]; [12],94 % of control
same,Mustard injury,[1]; [12],31 % of control
same,Mustard injury,[1]; [13],61 % of control
same,Mustard injury,[1]; [14],26 % of control
same,Mustard injury,[1]; [15],39 % of control
same,Mustard injury,[1]; [16],3 % of control
same,Mustard injury,[1]; [17],42 % of control
same,Mustard injury,[1]; [18],3 % of control
same,Green Foxtail bleaching,[2]; [9],100 % of control
same,Green Foxtail injury,[2]; [9],97
same,Green Foxtail bleaching,[2]; [10],100 % of control
same,Green Foxtail injury,[2]; [10],67
same,Green Foxtail bleaching,[2]; [11],104 % of control
same,Green Foxtail injury,[2]; [11],94
same,Green Foxtail bleaching,[2]; [12],104 % of control
same,Green Foxtail injury,[2]; [12],69
same,Green Foxtail bleaching,[2]; [13],104 % of control
same,Green Foxtail injury,[2]; [13],97
same,Green Foxtail bleaching,[2]; [14],104 % of control
same,Green Foxtail injury,[2]; [14],81
same,Green Foxtail bleaching,[2]; [15],104 % of control
same,Green Foxtail injury,[2]; [15],97
same,Green Foxtail bleaching,[2]; [16],104 % of control
same,Green Foxtail injury,[2]; [16],84
same,Green Foxtail bleaching,[2]; [17],160 % of control
same,Green Foxtail injury,[2]; [17],102
same,Green Foxtail bleaching,[2]; [18],106 % of control
same,Green Foxtail injury,[2]; [18],77
same,Green Foxtail injury,[2]; [19],97
same,Green Foxtail injury,[2]; [20],73
same,Green Foxtail injury,[2]; [21],268
same,Green Foxtail injury,[2]; [22],144
same,percentage control,"[3]; Trial 1, 43 DAT",40%
same,percentage control,"[3]; Trial 1, 63 DAT",62%
same,percentage control,"[3]; Trial 1, 77 DAT",65%
same,percentage control,"[3]; Trial 2, 27 DAT",37%
same,percentage control,"[3]; Trial 2, 46 DAT",53%
same,percentage control,"[3]; Trial 2, 60 DAT",57%
same,percentage control,"[3]; Trial 2, 83 DAT",68%
same,percentage control,"[3]; Trial 2, 97 DAT",53%
same,percentage control,"[3]; Trial 2, 124 DAT",23%
same,control of annual bluegrass,"[4]; high rate, by itself",reasonable control
same,Annual bluegrass bleaching,[4]; [9],100 % of control
same,Annual bluegrass injury,[4]; [9],104 % of control
same,Annual bluegrass bleaching,[4]; [10],100 % of control
same,Annual bluegrass injury,[4]; [10],71 % of control
same,Annual bluegrass bleaching,[4]; [11],100 % of control
same,Annual bluegrass injury,[4]; [11],104 % of control
same,Annual bluegrass bleaching,[4]; [12],100 % of control
same,Annual bluegrass injury,[4]; [12],61 % of control
same,Annual bluegrass bleaching,[4]; [13],100 % of control
same,Annual bluegrass injury,[4]; [13],108 % of control
same,Annual bluegrass bleaching,[4]; [14],91 % of control
same,Annual bluegrass injury,[4]; [14],67 % of control
same,Annual bluegrass bleaching,"[4]; rating 4/2, 0.022 lbs ai/A (0.5 oz/A)",100 % of control
same,Annual bluegrass bleaching,"[4]; rating 4/2, 0.13 lbs ai/A (3 oz/A)",88 % of control
same,Annual bluegrass bleaching,[4]; [15],107 % of control
same,Annual bluegrass injury,[4]; [15],96 % of control
same,Annual bluegrass bleaching,[4]; [16],94 % of control
same,Annual bluegrass injury,[4]; [16],53 % of control
same,Annual bluegrass injury,[4]; [17],90 % of control
same,Annual bluegrass injury,[4]; [18],52 % of control
same,Annual bluegrass injury,[4]; [19],85 % of control
same,Annual bluegrass injury,[4]; [20],31 % of control
same,Annual bluegrass injury,[4]; [21],85 % of control
same,Annual bluegrass injury,[4]; [22],24 % of control
